Experimental data published in US9255295B2, “Method for evaluating the sensitizing potential of a test compound” (IMMUNOSEARCH, priority 2010, dated 2016).

Test system: genes specific for sensitization (BRAK, CTSS, DAPK2, FABP4, HSP27, IL18, HSP90, IL1R2, TPSAB1, CXCR1, DEFB1, DHFR, EHF, IVL, KRT4, MELANA, NGAL, PDZK1IP1, PI3 …)
Assay: Expression of the other (non-ARE) sensitization-specific genes in EPISKIN reconstructed skin (quantitative RT-PCR)
Format: cell-based, human
Conditions: for BRAK expression / DHFR expression / HSP90 expression / IL18 expression / KRT4 expression / MELANA expression / PDZK1iP1 expression / SERPINB3 expression: compared to the control

## CC=Cc1ccc(O)c(OC)c1 [Isoeugenol]
0.1%
  BRAK NUMBER OF GENES grade: 0 (if this expression is lower, the grade is 0)
  CTSS expression compared to control: 0.9
  CTSS grade (NUMBER OF GENES): 0 (if this expression is lower, the grade is 0)
  CXCR1 expression compared to control: 0.7
  CXCR1 grade (NUMBER OF GENES): 0 (if this expression is lower, the grade is 0)
  DAPK2 expression compared to control: 1.1
  DAPK2 grade (NUMBER OF GENES): 0 (if this expression is lower, the grade is 0)
  DEFB1 expression compared to control: 1.0
  DEFB1 grade (NUMBER OF GENES): 0 (if this expression is lower, the grade is 0)
  DHFR NUMBER OF GENES grade: 0 (if this expression is lower, the grade is 0)
  EHF expression compared to control: 1.5
  EHF grade (NUMBER OF GENES): 1 (If the expression is greater than 1.3 compared to the control, a grade of 11s given)
  FABP4 expression compared to control: 0.8
  FABP4 grade (NUMBER OF GENES): 0 (if this expression is lower, the grade is 0)
  HSP27 expression compared to control: 1.0
  HSP27 grade (NUMBER OF GENES): 0 (if this expression is lower, the grade is 0)
  HSP90 NUMBER OF GENES grade: 0 (if this expression is lower, the grade is 0)
  IL18 NUMBER OF GENES grade: 0 (if this expression is lower, the grade is 0)
  IVL expression compared to control: 1.3
  IVL grade (NUMBER OF GENES): 1 (If the expression is greater than 1.3 compared to the control, a grade of 11s given)
  KRT4 NUMBER OF GENES grade: 0 (if this expression is lower, the grade is 0)
  MELANA NUMBER OF GENES grade: 0 (if this expression is lower, the grade is 0)
  NGAL expression compared to control: 1.1
  NGAL grade (NUMBER OF GENES): 0 (if this expression is lower, the grade is 0)
  P13 expression compared to control: 1.1
  P13 grade (NUMBER OF GENES): 0 (if this expression is lower, the grade is 0)
  PDZK1iP1 NUMBER OF GENES grade: 0 (if this expression is lower, the grade is 0)
  SENS >1.3 (number of genes): 2
  SERPINB3 NUMBER OF GENES grade: 0 (if this expression is lower, the grade is 0)
  TOTAL SENS (number of genes): 2
  BRAK expression: 0.6
  DHFR expression: 0.8
  HSP90 expression: 0.9
  IL18 expression: 0.6
  KRT4 expression: 1.2
  MELANA expression: 0.9
  PDZK1iP1 expression: 1.0
  SERPINB3 expression: 1.2
1%
  BRAK NUMBER OF GENES grade: 0 (if this expression is lower, the grade is 0)
  CTSS expression compared to control: 0.8
  CTSS grade (NUMBER OF GENES): 0 (if this expression is lower, the grade is 0)
  CXCR1 expression compared to control: 1.1
  CXCR1 grade (NUMBER OF GENES): 0 (if this expression is lower, the grade is 0)
  DAPK2 expression compared to control: 0.9
  DAPK2 grade (NUMBER OF GENES): 0 (if this expression is lower, the grade is 0)
  DEFB1 expression compared to control: 1.1
  DEFB1 grade (NUMBER OF GENES): 0 (if this expression is lower, the grade is 0)
  DHFR NUMBER OF GENES grade: 0 (if this expression is lower, the grade is 0)
  EHF expression compared to control: 1.2
  EHF grade (NUMBER OF GENES): 0 (if this expression is lower, the grade is 0)
  FABP4 expression compared to control: 0.9
  FABP4 grade (NUMBER OF GENES): 0 (if this expression is lower, the grade is 0)
  HSP27 expression compared to control: 0.8
  HSP27 grade (NUMBER OF GENES): 0 (if this expression is lower, the grade is 0)
  HSP90 NUMBER OF GENES grade: 1 (If the expression is greater than 1.3 compared to the control, a grade of 11s given)
  IL18 NUMBER OF GENES grade: 0 (if this expression is lower, the grade is 0)
  IVL expression compared to control: 1.4
  IVL grade (NUMBER OF GENES): 1 (If the expression is greater than 1.3 compared to the control, a grade of 11s given)
  KRT4 NUMBER OF GENES grade: 0 (if this expression is lower, the grade is 0)
  MELANA NUMBER OF GENES grade: 1 (If the expression is greater than 1.3 compared to the control, a grade of 11s given)
  NGAL expression compared to control: 1.1
  NGAL grade (NUMBER OF GENES): 0 (if this expression is lower, the grade is 0)
  P13 expression compared to control: 0.9
  P13 grade (NUMBER OF GENES): 0 (if this expression is lower, the grade is 0)
  PDZK1iP1 NUMBER OF GENES grade: 0 (if this expression is lower, the grade is 0)
  SENS >1.3 (number of genes): 5
  SERPINB3 NUMBER OF GENES grade: 0 (if this expression is lower, the grade is 0)
  TOTAL SENS (number of genes): 5
  BRAK expression: 0.9
  DHFR expression: 0.9
  HSP90 expression: 1.3
  IL18 expression: 1.1
  KRT4 expression: 0.8
  MELANA expression: 1.4
  PDZK1iP1 expression: 1.1
  SERPINB3 expression: 1.2
10%
  BRAK NUMBER OF GENES grade: 0 (if this expression is lower, the grade is 0)
  CTSS expression compared to control: 1.5
  CTSS grade (NUMBER OF GENES): 1 (If the expression is greater than 1.3 compared to the control, a grade of 11s given)
  CXCR1 expression compared to control: 1.6
  CXCR1 grade (NUMBER OF GENES): 1 (If the expression is greater than 1.3 compared to the control, a grade of 11s given)
  DAPK2 expression compared to control: 0.9
  DAPK2 grade (NUMBER OF GENES): 0 (if this expression is lower, the grade is 0)
  DEFB1 expression compared to control: 1.5
  DEFB1 grade (NUMBER OF GENES): 1 (If the expression is greater than 1.3 compared to the control, a grade of 11s given)
  DHFR NUMBER OF GENES grade: 0 (if this expression is lower, the grade is 0)
  EHF expression compared to control: 1.4
  EHF grade (NUMBER OF GENES): 1 (If the expression is greater than 1.3 compared to the control, a grade of 11s given)
  FABP4 expression compared to control: 1.2
  FABP4 grade (NUMBER OF GENES): 0 (if this expression is lower, the grade is 0)
  HSP27 expression compared to control: 0.9
  HSP27 grade (NUMBER OF GENES): 0 (if this expression is lower, the grade is 0)
  HSP90 NUMBER OF GENES grade: 1 (If the expression is greater than 1.3 compared to the control, a grade of 11s given)
  IL18 NUMBER OF GENES grade: 0 (if this expression is lower, the grade is 0)
  IVL expression compared to control: 1.9
  IVL grade (NUMBER OF GENES): 1 (If the expression is greater than 1.3 compared to the control, a grade of 11s given)
  KRT4 NUMBER OF GENES grade: 0 (if this expression is lower, the grade is 0)
  MELANA NUMBER OF GENES grade: 0 (if this expression is lower, the grade is 0)
  NGAL expression compared to control: 2.1
  NGAL grade (NUMBER OF GENES): 1 (If the expression is greater than 1.3 compared to the control, a grade of 11s given)
  P13 expression compared to control: 1.4
  P13 grade (NUMBER OF GENES): 1 (If the expression is greater than 1.3 compared to the control, a grade of 11s given)
  PDZK1iP1 NUMBER OF GENES grade: 0 (if this expression is lower, the grade is 0)
  SENS >1.3 (number of genes): 10
  SERPINB3 NUMBER OF GENES grade: 0 (if this expression is lower, the grade is 0)
  TOTAL SENS (number of genes): 10
  BRAK expression: 0.8
  DHFR expression: 0.9
  HSP90 expression: 1.3
  IL18 expression: 0.7
  KRT4 expression: 1.0
  MELANA expression: 0.6
  PDZK1iP1 expression: 1.0
  SERPINB3 expression: 1.1
50%
  BRAK NUMBER OF GENES grade: 0 (if this expression is lower, the grade is 0)
  CTSS expression compared to control: 1.4
  CTSS grade (NUMBER OF GENES): 1 (If the expression is greater than 1.3 compared to the control, a grade of 11s given)
  CXCR1 expression compared to control: 2.6
  CXCR1 grade (NUMBER OF GENES): 1 (If the expression is greater than 1.3 compared to the control, a grade of 11s given)
  DAPK2 expression compared to control: 1.4
  DAPK2 grade (NUMBER OF GENES): 1 (If the expression is greater than 1.3 compared to the control, a grade of 11s given)
  DEFB1 expression compared to control: 2.1
  DEFB1 grade (NUMBER OF GENES): 1 (If the expression is greater than 1.3 compared to the control, a grade of 11s given)
  DHFR NUMBER OF GENES grade: 0 (if this expression is lower, the grade is 0)
  EHF expression compared to control: 2.0
  EHF grade (NUMBER OF GENES): 1 (If the expression is greater than 1.3 compared to the control, a grade of 11s given)
  FABP4 expression compared to control: 1.8
  FABP4 grade (NUMBER OF GENES): 1 (If the expression is greater than 1.3 compared to the control, a grade of 11s given)
  HSP27 expression compared to control: 1.2
  HSP27 grade (NUMBER OF GENES): 0 (if this expression is lower, the grade is 0)
  HSP90 NUMBER OF GENES grade: 1 (If the expression is greater than 1.3 compared to the control, a grade of 11s given)
  IL18 NUMBER OF GENES grade: 0 (if this expression is lower, the grade is 0)
  IVL expression compared to control: 2.8
  IVL grade (NUMBER OF GENES): 1 (If the expression is greater than 1.3 compared to the control, a grade of 11s given)
  KRT4 NUMBER OF GENES grade: 0 (if this expression is lower, the grade is 0)
  MELANA NUMBER OF GENES grade: 0 (if this expression is lower, the grade is 0)
  NGAL expression compared to control: 2.7
  NGAL grade (NUMBER OF GENES): 1 (If the expression is greater than 1.3 compared to the control, a grade of 11s given)
  P13 expression compared to control: 1.7
  P13 grade (NUMBER OF GENES): 1 (If the expression is greater than 1.3 compared to the control, a grade of 11s given)
  PDZK1iP1 NUMBER OF GENES grade: 0 (if this expression is lower, the grade is 0)
  SENS >1.3 (number of genes): 13
  SERPINB3 NUMBER OF GENES grade: 1 (If the expression is greater than 1.3 compared to the control, a grade of 11s given)
  TOTAL SENS (number of genes): 13
  BRAK expression: 0.6
  DHFR expression: 0.9
  HSP90 expression: 1.7
  IL18 expression: 0.8
  KRT4 expression: 1.2
  MELANA expression: 0.4
  PDZK1iP1 expression: 1.1
  SERPINB3 expression: 1.5
